Measured values from patent US11690828B2, “Treatment of CNS diseases with sGC stimulators” (Cyclerion Therapeutics, Inc., priority 2016, dated 2023).
pEC50: −log10 of the molar value.

Key:
male Long Evans rats = experiment: Novel Object Recognition (NOR) test, MK-801-induced memory deficit; format: in vivo, rat
rats [1] = experiment: Kaolin - gait score; format: in vivo, rat; conditions: Compound I-2 p.o. 10 mg/kg; 120 minutes after treatment
Method: Kaolin. Induction: In rats, unilateral arthritis was induced by an intra-articular injection of a 10% kaolin suspension into the knee joint of the right hind paw under gas anesthesia (3.5% isoflurane/3 L/min). Gait score: The gait score will be evaluated 3 h 30 min after kaolin administration by:
2: intermittent raising of the paw
(§1) Testing: 120 minutes after treatment. N=4/model/test. Results are expressed for each group as a percentage of activity calculated from the mean value of the vehicle-treated animals and compared to naïve animals, control paw, or cut-off value, depending on the test.

rats [2] = experiment: TNBS - colorectal distension; format: in vivo, rat; conditions: Compound I-2 p.o. 10 mg/kg; 120 minutes after treatment
Method: TNBS. Surgery: Colonic sensitivity was induced by surgical administration of TNBS seven days before behavioral testing (D−7). Fasted (overnight) animals underwent surgery. Briefly, under anesthesia (Xylazine 10 mg/kg i.p., ketamine 60 mg/kg i.p.), injection of TNBS (50 mg/kg, 1 mL/kg) was performed into the proximal part of the colon (1 cm from the caecum). After surgery, animals returned in their home cages in a regulated environment, and were fed ad libitum until D−1 (animals were fasted 24 hours before distention). Colorectal distension: Seven days (D0) after TNBS injection, colonic sensitivity was assessed on fasted (overnight) animals by measuring the intra-colonic pressure required to induce a behavioral response during colonic distension. To perform distension, a 5-cm balloon was gently inserted into the colon of vigil animals at 10 cm from the anus and the catheter was taped to the base of the tail. […] Pain behavior was characterized by an elevation of the hind part of the animals body and a clearly visible abdominal contraction corresponding to a severe cramp. Two determinations were performed.
as §1

CREB = experiment: pCREB phosphorylation in rat primary neurons; format: cell-based; conditions: Primary neuron, 0.5 h, 30 μM DETA-NONOate, 30 min, 95% confidence interval 0.07 nM to 4.44 nM, read-out: EC50, phosphorylation of CREB at Ser133
Method: Compounds. Compound I-5 was dissolved in DMSO as a 10 mM solution and stored at −20° C. To achieve desired test concentrations, stock concentrations were serially diluted into DMSO and then diluted to the appropriate concentration in assay buffer.
Rat primary neurons culture. Neurons were isolated from Sprague Dawley rat embryos on embryonic day 18 (E18). Approximately 10 embryos were obtained from each rat, and whole brains were isolated from the embryos. Hippocampus and cortex were dissected from the brains under a stereoscopic microscope using two pairs of fine tweezers. The meninges were carefully removed. After dissection, the tissues were chopped and washed gently once with 10 mL of Ca^2+ and Mg^2+ free Hank's solution (HBSS, Corning cat #21-022-CM) in a 15-mL conical tube. After washing, 5 mL of a solution of 0.25% trypsin (Invitrogen cat #15090-046) and 0.1% deoxyribonuclease I (DNase I, Sigma cat #DN-25) were added to the tissues in the tube, which were then incubated at 37° C. for 15 min. […]
Assay Conditions. […] Medium was removed and cell were lysed and assay was performed according to Cisbio protocol (phospho-CREB (Ser133) catalog #64CREPEG) and the plate was read using Envision instrument (PerkinElmer).
Data Analysis. Data were analyzed with a 4-parameter fit (log(agonist) vs. response—variable slope) using GraphPad Prism Software v.7. […]

[3] = I-2 0.1 mg/kg, compared to Vehicle/MK-801 group

pEC50 (CREB)	Structure (SMILES)	Recognition Index, Mean (0 to 3 minute time bin) (male Long Evans rats; I-2 0.1 mg/kg oral + MK-801 0.1 mg/kg IP)	Reversal of MK-801-induced memory deficits, 0-3 minute time range (male Long Evans rats; [3])	Reversal of MK-801-induced memory deficits, 0-5 minute time range (male Long Evans rats; [3])	Recognition Index, Mean (0 to 3 minute time bin) (male Long Evans rats; I-2 1 mg/kg oral + MK-801 0.1 mg/kg IP)	Recognition Index, Mean (0 to 3 minute time bin) (male Long Evans rats; I-2 10 mg/kg oral + MK-801 0.1 mg/kg IP)	% of activity vs. vehicle, kaolin gait score (rats [1])	% of activity vs. vehicle, TNBS colorectal distension (rats [2])
	Fc1ccccc1Cn1nc(-c2nc(C(F)(F)F)n[nH]2)c2cccnc21 [Compound I-2]	68.21%	significantly reversed	significantly reversed	63.98%	61.76%	88%	43%
9.26	FC(F)(F)c1n[nH]c(-c2nc(Cc3cncnc3)c3ccccn23)n1 [Compound I-5]							
